{"source": "paper PMC10149103", "about": "(Journal of medicinal chemistry, 2022)", "key": {"KOR [1]": {"target": "T1, KOR (Mus musculus, UniProt P33534)", "T1 sequence (P33534 whole entry)": "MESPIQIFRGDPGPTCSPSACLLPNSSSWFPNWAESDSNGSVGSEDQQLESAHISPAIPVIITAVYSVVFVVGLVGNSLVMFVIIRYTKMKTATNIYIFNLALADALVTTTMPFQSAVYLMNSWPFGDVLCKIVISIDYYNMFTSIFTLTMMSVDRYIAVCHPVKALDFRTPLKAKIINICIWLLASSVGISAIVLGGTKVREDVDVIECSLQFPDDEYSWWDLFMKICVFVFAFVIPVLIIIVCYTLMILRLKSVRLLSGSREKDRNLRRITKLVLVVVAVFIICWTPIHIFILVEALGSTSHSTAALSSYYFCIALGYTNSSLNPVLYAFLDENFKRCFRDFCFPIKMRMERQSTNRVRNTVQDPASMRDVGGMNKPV", "assay_type": "binding"}, "DOR [2]": {"target": "T2, DOR (Homo sapiens, UniProt P41143)", "T2 sequence (P41143 whole entry)": "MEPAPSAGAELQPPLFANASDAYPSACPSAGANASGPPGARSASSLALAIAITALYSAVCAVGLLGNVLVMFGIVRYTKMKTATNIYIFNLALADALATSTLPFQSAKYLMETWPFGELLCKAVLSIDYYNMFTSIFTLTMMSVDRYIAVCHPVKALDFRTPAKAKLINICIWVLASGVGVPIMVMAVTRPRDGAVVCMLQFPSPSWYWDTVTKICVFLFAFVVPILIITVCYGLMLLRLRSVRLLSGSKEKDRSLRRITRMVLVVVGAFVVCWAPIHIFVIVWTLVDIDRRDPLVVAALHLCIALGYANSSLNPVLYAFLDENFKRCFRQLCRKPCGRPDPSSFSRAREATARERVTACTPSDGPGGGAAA", "assay": "biochemical", "assay_type": "binding"}, "MOR": {"target": "MOR (Mus musculus, UniProt P42866)", "sequence (P42866 whole entry)": "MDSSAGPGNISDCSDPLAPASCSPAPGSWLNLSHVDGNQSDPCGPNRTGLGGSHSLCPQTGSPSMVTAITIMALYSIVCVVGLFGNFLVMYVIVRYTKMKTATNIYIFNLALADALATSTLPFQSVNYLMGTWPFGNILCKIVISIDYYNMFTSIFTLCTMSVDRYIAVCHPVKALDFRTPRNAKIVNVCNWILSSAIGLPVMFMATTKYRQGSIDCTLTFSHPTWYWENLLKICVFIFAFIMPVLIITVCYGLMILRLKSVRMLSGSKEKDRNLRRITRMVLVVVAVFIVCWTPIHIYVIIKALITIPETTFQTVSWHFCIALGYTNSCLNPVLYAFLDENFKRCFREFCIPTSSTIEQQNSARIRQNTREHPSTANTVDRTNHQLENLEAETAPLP", "assay": "biochemical", "assay_type": "biochemical", "settings": "for Emax: read-out: MOR [35S]GTPγS Binding % Emax of DAMGO"}, "KOR [3]": {"target": "T1, KOR", "assay": "biochemical", "settings": "read-out: KOR [35S]GTPγS Binding % Emax of U50,488H"}, "DOR [4]": {"target": "T2, DOR", "assay": "biochemical", "settings": "read-out: DOR [35S]GTPγS Binding % Emax of SNC80"}}, "note": "Values joined by “and” are separate entries in the source; they are usually repeats but may differ in a detail not shown here. Identical values can stand only once. Counter-ions that a name gives are not always drawn."}
{"compound": "Cl.O=C(Cc1ccoc1)N[C@@H]1CC[C@@]2(O)[C@H]3Cc4ccc(O)c5c4[C@@]2(CCN3CC2CC2)[C@H]1O5", "note": "[Compound 22, 17-Cyclopropylmetyl-3,14β-dihydroxy-4,5α-epoxy-6β-[(3′-furanyl)acetamido]morphinan Hydrochloride]", "values": [{"measurement": "Selectivity κ/μ", "setting": "KOR [1]", "result": "16.7 and 17"}, {"measurement": "Selectivity δ/μ", "setting": "DOR [2]", "result": 332}, {"measurement": "Emax", "setting": "MOR", "result": "30.8 ± 2.07", "unit": "%"}]}
{"compound": "Cl.O=C(Cc1ccco1)N[C@@H]1CC[C@@]2(O)[C@H]3Cc4ccc(O)c5c4[C@@]2(CCN3CC2CC2)[C@H]1O5", "note": "[Compound 16, 17-Cyclopropylmethyl-3,14β-dihydroxy-4,5α-epoxy-6β-[(2′-furanyl)acetamido]morphinan Hydrochloride]", "values": [{"measurement": "Emax", "setting": "MOR", "result": "40 ± 0.9", "unit": "%"}, {"measurement": "Emax", "setting": "KOR [3]", "result": "49.3 ± 1.07", "unit": "%"}, {"measurement": "Emax", "setting": "DOR [4]", "result": "31.2 ± 1.49", "unit": "%"}]}
{"compound": "Cl.O=C(Cc1cc[nH]c1)N[C@@H]1CC[C@@]2(O)[C@H]3Cc4ccc(O)c5c4[C@@]2(CCN3CC2CC2)[C@H]1O5", "note": "[Compound 10, 17-Cyclopropylmethyl-3,14β-dihydroxy-4,5α-epoxy-6β-[(3′-pyrrolyl)acetamido]morphinan Hydrochloride]", "values": [{"measurement": "Emax", "setting": "MOR", "result": "53.3 ± 0.95", "unit": "%"}]}
{"compound": "Cl.O=C(Cc1ccco1)N[C@H]1CC[C@@]2(O)[C@H]3Cc4ccc(O)c5c4[C@@]2(CCN3CC2CC2)[C@H]1O5", "note": "[Compound 15, 17-Cyclopropylmethyl-3, 14β-dihydroxy-4,5α-epoxy-6α-[(2′-furanyl)acetamido]morphinan Hydrochloride]", "values": [{"measurement": "Emax", "setting": "MOR", "result": "22.6 ± 2.77", "unit": "%"}, {"measurement": "Emax", "setting": "KOR [3]", "result": "63.3 ± 2.5", "unit": "%"}, {"measurement": "Emax", "setting": "DOR [4]", "result": "66.8 ± 4.24", "unit": "%"}]}
{"compound": "Cl.O=C(N[C@H]1CC[C@@]2(O)[C@H]3Cc4ccc(O)c5c4[C@@]2(CCN3CC2CC2)[C@H]1O5)c1cc[nH]c1", "note": "[Compound 7, 17-Cyclopropylmethyl-3,14β-dihydroxy-4,5α-epoxy-6α-[(3′-pyrrolyl)carboxamido]morphinan Hydrochloride]", "values": [{"measurement": "Selectivity κ/μ", "setting": "KOR [1]", "result": 2}, {"measurement": "Selectivity δ/μ", "setting": "DOR [2]", "result": 31}, {"measurement": "MOR [35S]GTPγS Binding % Emax of DAMGO", "setting": "MOR", "result": "16.65 ± 1.25", "unit": "%"}]}
{"compound": "Cl.O=C(N[C@@H]1CC[C@@]2(O)[C@H]3Cc4ccc(O)c5c4[C@@]2(CCN3CC2CC2)[C@H]1O5)c1ccoc1", "note": "[Compound 20, 17-Cyclopropylmethyl-3,14β-dihydroxy-4,5α-epoxy-6β-[(3′-furanyl)carboxamido]morphinan Hydrochloride]", "values": [{"measurement": "Selectivity κ/μ", "setting": "KOR [1]", "result": 3}, {"measurement": "Selectivity δ/μ", "setting": "DOR [2]", "result": 234}, {"measurement": "Emax", "setting": "MOR", "result": "25 ± 1.74", "unit": "%"}]}
{"compound": "Cl.O=C(N[C@@H]1CC[C@@]2(O)[C@H]3Cc4ccc(O)c5c4[C@@]2(CCN3CC2CC2)[C@H]1O5)c1ccco1", "note": "[Compound 14, 17-Cyclopropylmethyl-3,14β-dihydroxy-4,5α-epoxy-6β-[(2′furanyl)carboxamido]morphinan Hydrochloride]", "values": [{"measurement": "Emax", "setting": "MOR", "result": "24.2 ± 0.9", "unit": "%"}, {"measurement": "Emax", "setting": "KOR [3]", "result": "67.2 ± 2.53", "unit": "%"}, {"measurement": "Emax", "setting": "DOR [4]", "result": "23.1 ± 0.97", "unit": "%"}]}
{"compound": "Cl.O=C(Cc1cc[nH]c1)N[C@H]1CC[C@@]2(O)[C@H]3Cc4ccc(O)c5c4[C@@]2(CCN3CC2CC2)[C@H]1O5", "note": "[Compound 9, 17-Cyclopropylmethyl-3, 14β-dihydroxy-4,5α-epoxy-6α-[(3′-pyrrolyl)acetamido]morphinan Hydrochloride]", "values": [{"measurement": "Selectivity κ/μ", "setting": "KOR [1]", "result": 5}, {"measurement": "Selectivity δ/μ", "setting": "DOR [2]", "result": 4}, {"measurement": "Emax", "setting": "MOR", "result": "31.6 ± 2.87", "unit": "%"}]}
{"compound": "Cl.O=C(CCc1ccc[nH]1)N[C@H]1CC[C@@]2(O)[C@H]3Cc4ccc(O)c5c4[C@@]2(CCN3CC2CC2)[C@H]1O5", "note": "[Compound 5, 17-Cyclopropylmethyl-3,14β-dihydroxy-4,5α-epoxy-6α[3′-(2′-pyrrolyl)propanamido]morphinan Hydrochloride]", "values": [{"measurement": "Emax", "setting": "MOR", "result": "24 ± 3.59", "unit": "%"}]}
{"compound": "O=C(Cc1cccs1)N[C@H]1CC[C@@]2(O)[C@H]3Cc4ccc(O)c5c4[C@@]2(CCN3CC2CC2)[C@H]1O5", "note": "[Compound 27, 17-Cyclopropylmethyl-3,14β-dihydroxy-4,5α-epoxy-6α-(2′-thienylacetamido)morphinan Hydrochloride]", "values": [{"measurement": "Ki", "setting": "DOR [2]", "result": "6.92 ± 1.63", "unit": "nM"}]}
{"compound": "Cl.O=C(N[C@H]1CC[C@@]2(O)[C@H]3Cc4ccc(O)c5c4[C@@]2(CCN3CC2CC2)[C@H]1O5)c1ccco1", "note": "[Compound 13, 17-Cyclopropylmethyl-3,14β-dihydroxy-4,5α-epoxy-6α-[(2′furanyl)carboxamido]morphinan Hydrochloride]", "values": [{"measurement": "Selectivity κ/μ", "setting": "KOR [1]", "result": "3.83 and 4"}, {"measurement": "Selectivity δ/μ", "setting": "DOR [2]", "result": "62.83 and 63"}, {"measurement": "Emax", "setting": "MOR", "result": "21.8 ± 5.19", "unit": "%"}]}
{"compound": "Cl.O=C(CCc1ccco1)N[C@H]1CC[C@@]2(O)[C@H]3Cc4ccc(O)c5c4[C@@]2(CCN3CC2CC2)[C@H]1O5", "note": "[Compound 17, 17-Cyclopropylmethyl-3, 14β-dihydroxy-4,5α-epoxy-6α-[(2′-furanyl)propanamido]morphinan Hydrochloride]", "values": [{"measurement": "Selectivity δ/μ", "setting": "DOR [2]", "result": 4}]}
{"compound": "Cl.O=C(CCc1cc[nH]c1)N[C@@H]1CC[C@@]2(O)[C@H]3Cc4ccc(O)c5c4[C@@]2(CCN3CC2CC2)[C@H]1O5", "note": "[Compound 12]", "values": [{"measurement": "Selectivity κ/μ", "setting": "KOR [1]", "result": 7}, {"measurement": "Selectivity δ/μ", "setting": "DOR [2]", "result": 164}, {"measurement": "Emax", "setting": "MOR", "result": "37.7 ± 0.87", "unit": "%"}]}
{"compound": "Cl.O=C(N[C@H]1CC[C@@]2(O)[C@H]3Cc4ccc(O)c5c4[C@@]2(CCN3CC2CC2)[C@H]1O5)c1ccoc1", "note": "[Compound 19, 17-Cyclopropylmethyl-3, 14β-dihydroxy-4,5α-epoxy-6α-[(3′-furanyl)carboxamido]morphinan Hydrochloride]", "values": [{"measurement": "MOR [35S]GTPγS Binding % Emax of DAMGO", "setting": "MOR", "result": "18.14 ± 2.95", "unit": "%"}]}
{"compound": "Cl.O=C(CCc1ccco1)N[C@@H]1CC[C@@]2(O)[C@H]3Cc4ccc(O)c5c4[C@@]2(CCN3CC2CC2)[C@H]1O5", "note": "[Compound 18, 17-Cyclopropylmethyl-3,14β-dihydroxy-4,5α-epoxy-6β-[(2′-furanyl)propanamido]morphinan Hydrochloride]", "values": [{"measurement": "Selectivity κ/μ", "setting": "KOR [1]", "result": 2}, {"measurement": "Selectivity δ/μ", "setting": "DOR [2]", "result": 118}]}
{"compound": "Cl.O=C(Cc1ccc[nH]1)N[C@@H]1CC[C@@]2(O)[C@H]3Cc4ccc(O)c5c4[C@@]2(CCN3CC2CC2)[C@H]1O5", "note": "[Compound 4, 17-Cyclopropylmethyl-3,14β-dihydroxy-4,5α-epoxy-6β-[2′-(2′-pyrrolyl)acetamido]morphinan Hydrochloride]", "values": [{"measurement": "Selectivity κ/μ", "setting": "KOR [1]", "result": 8}, {"measurement": "Selectivity δ/μ", "setting": "DOR [2]", "result": 152}, {"measurement": "Emax", "setting": "MOR", "result": "44.2 ± 1.52", "unit": "%"}]}
{"compound": "Cl.O=C(Cc1ccoc1)N[C@H]1CC[C@@]2(O)[C@H]3Cc4ccc(O)c5c4[C@@]2(CCN3CC2CC2)[C@H]1O5", "note": "[Compound 21, 17-Cyclopropylmetyl-3, 14β-dihydroxy-4,5α-epoxy-6α-[(3′-furanyl)acetamido]morphinan Hydrochloride]", "values": [{"measurement": "Selectivity κ/μ", "setting": "KOR [1]", "result": 15}, {"measurement": "Selectivity δ/μ", "setting": "DOR [2]", "result": 9}, {"measurement": "MOR [35S]GTPγS Binding % Emax of DAMGO", "setting": "MOR", "result": "14.95 ± 1.46", "unit": "%"}]}
{"compound": "Cl.O=C(N[C@H]1CC[C@@]2(O)[C@H]3Cc4ccc(O)c5c4[C@@]2(CCN3CC2CC2)[C@H]1O5)c1ccc[nH]1", "note": "[Compound 1, 17-Cyclopropylmethyl-3,14β-dihydroxy-4,5α-epoxy-6a-[(2′-pyrrolyl)carboxamido]morphinan Hydrochloride]", "values": [{"measurement": "MOR [35S]GTPγS Binding % Emax of DAMGO", "setting": "MOR", "result": "12.11 ± 2.64", "unit": "%"}, {"measurement": "Emax", "setting": "KOR [3]", "result": "43.4 ± 1.36", "unit": "%"}, {"measurement": "Emax", "setting": "DOR [4]", "result": "50.9 ± 5.25", "unit": "%"}]}
{"compound": "Cl.O=C(Cc1ccc[nH]1)N[C@H]1CC[C@@]2(O)[C@H]3Cc4ccc(O)c5c4[C@@]2(CCN3CC2CC2)[C@H]1O5", "note": "[Compound 3, 17-Cyclopropylmethyl-3,14β-dihydroxy-4,5α-epoxy-6a-[2′-(2′-pyrrolyl)acetamido]morphinan Hydrochloride]", "values": [{"measurement": "Selectivity κ/μ", "setting": "KOR [1]", "result": 6}, {"measurement": "Selectivity δ/μ", "setting": "DOR [2]", "result": 8}, {"measurement": "Emax", "setting": "MOR", "result": "25 ± 2.61", "unit": "%"}]}
{"compound": "Cl.O=C(CCc1ccc[nH]1)N[C@@H]1CC[C@@]2(O)[C@H]3Cc4ccc(O)c5c4[C@@]2(CCN3CC2CC2)[C@H]1O5", "note": "[Compound 6, 17-Cyclopropylmethyl-3,14β-dihydroxy-4,5α-epoxy-6β-[3′-(2′-pyrrolyl)propanamido]morphinan Hydrochloride]", "values": [{"measurement": "Selectivity κ/μ", "setting": "KOR [1]", "result": 2}, {"measurement": "Selectivity δ/μ", "setting": "DOR [2]", "result": 70}, {"measurement": "Emax", "setting": "MOR", "result": "39.3 ± 3.16", "unit": "%"}]}
